From patent US5216165A, “N-substituted aminoquinolines as analgesic agents” (American Home Products Corporation, priority 1992, dated 1993)
Where a name gives a salt, the structure may show the parent alone. Read-outs that look alike come from different tables or passages of the source.

What was measured:
[1] = system: bradykinin-induced writhing response; test: inhibition of the writhing response induced in mice by exogenous administration of bradykinin; format: in vivo, mice (male CD-1)
BK2 receptor = target: T1, BK2 receptor (Cavia porcellus, UniProt O70526); test: competition with tritiated bradykinin (3H-BK) for BK2 receptor sites in guinea pig ileum; format: binding; settings: for Activity (reference compounds, 3H-BK binding): screened at 100 μM
T1 construct: The distal portion of the ileum is removed and placed in ice cold homogenization buffer; from tissue; host or cells: distal ileum of adult male Hartley strain guinea pig, washed 50,000×g pellet of homogenate
T1 sequence (O70526 1-372): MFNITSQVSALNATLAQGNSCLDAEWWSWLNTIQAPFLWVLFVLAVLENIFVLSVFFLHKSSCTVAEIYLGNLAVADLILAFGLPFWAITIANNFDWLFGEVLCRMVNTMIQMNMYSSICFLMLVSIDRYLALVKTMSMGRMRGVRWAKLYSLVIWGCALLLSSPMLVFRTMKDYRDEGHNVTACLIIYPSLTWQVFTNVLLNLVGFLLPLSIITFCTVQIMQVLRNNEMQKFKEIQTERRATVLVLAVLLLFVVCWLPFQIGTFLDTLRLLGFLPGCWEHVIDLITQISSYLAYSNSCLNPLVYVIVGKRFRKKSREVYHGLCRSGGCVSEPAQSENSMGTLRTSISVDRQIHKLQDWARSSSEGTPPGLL
Procedure: This assay is employed to identify compounds which compete specifically with tritiated bradykinin (^3 H-BK) for BK2 receptor sites in guinea pig ileum.
The assay is carried out as follows:
A 350-500 g adult male Hartley strain guinea pig is euthanized by stunning followed by decapitation. The distal portion of the ileum is removed and placed in ice cold homogenization buffer [25 mM N-tris(hydroxymethyl)methyl-2-aminoethane sulfonic acid (TES) 1 mM 1,10-phenanthroline, adjusted to pH 6.8 with NH4 OH]. The contents of the ileal lumen are rinsed out with cold homogenization buffer. The tissue is cut into small pieces and homogenized in 20 volumes of homogenization buffer using a Brinkmann Polytron homogenizer equipped with a PTA 10 TS generator. The tissue is homogenized for 10 seconds, three times, at setting 5.
The homogenate is filtered through a surgical gauze sponge and centrifuged at 50,000×g for 20 minutes at 4° C. The supernatant fluid is discarded and the homogenization and centrifugation procedure is repeated. After discarding the supernatant fluid, the final pellet is resuspended in 40 volumes of assay buffer [25 mM TES, pH=6.8, 1 mM 1,10-phenanthroline, 1 mM dithiothreitol, 2 μM captopril, 140 μg/ml bacitracin and 0.1% bovine serum albumin (BSA)]. The homogenate is filtered once more through a surgical gauze sponge and kept on ice until use.
The assay is performed using only polypropylene pipet tips and polypropylene test tubes. Each tube receives 100 μl of 800 pM ^3 H-BK, 100 μl of the test compound solution or vehicle (TES assay buffer), and 100 μl of 25 mg/ml tissue homogenate in a total volume of 1 ml. The final concentration of ^3 H-BK is 80 pM. The final tissue concentration is 2.5 mg/ml. Compounds are screened at 100 μM. Nonspecific binding is determined in the presence of 1 μM unlabeled bradykinin. All determinations are made in triplicate. Three 100 μl aliquots of the 800 pM 3 H-BK working solution are added directly to scintillation vials to determine the total added radioactivity.
The tubes are incubated for 90 minutes at 25° C. while being gently agitated on an orbital shaker. Bound ligand is separated from free ligand, using Whatman GF/B glass fiber filters (pretreated with 0.1% aqueous polyethyleneimine made neutral with HCl). A Brandel receptor binding harvester is used. Assay tubes and glass fiber filters are rinsed three times with 3 ml of cold physiological saline.
The filter discs are transferred to 20 ml scintillation vials. Ten ml of aqueous sample LSC cocktail (Aquassure, New England Nuclear) is added to each vial. After capping, the vials are agitated for 5 minutes on an orbital shaker. The samples are counted for ten minutes in a refrigerated liquid scintillation counter.
The following values are obtained:
Bx Total binding in the presence of the test compound
C Control specific binding. C=Bt -Bns
D Specific binding in the presence of the test compound. D=Bx -Bns
Percent of control: D/C×100
Percent Inhibition: (1-D/C)×100
After calculation of Percent of Control for each dilution, the values are analyzed and the IC50 with its 95% confidence limits is determined on a Hewlett Packard 9816 computer using the program "PS-NONLIN" (generalizednon-linear regression with inverse prediction and graphics).

[2] = guinea pig ileum homogenate, 80 pM 3H-BK, 90 min, 25° C., pH 6.8, read-out: IC50
[3] = 30 mg/kg i.p., bradykinin 0.5 mg/kg i.p. after PGE2
[4] = bradykinin 0.5 mg/kg i.p. after PGE2
[5] = guinea pig ileum homogenate, 80 pM 3H-BK

| Compound | IC50 (BK2 receptor; [2]) [µM] | % Inhibition at 30 mg/kg i.p. [1, 3] [%] | also measured |
| --- | --- | --- | --- |
| CC(=O)Nc1ccc(O)cc1 [Acetaminophen, reference compound] |  |  | % inhibition of writhing ([1]; at 300 mg/kg p.o. (reference compound acetaminophen)): 20% |
| CCCCN1CCC(NCc2ccc(Nc3ccnc4cc(Cl)ccc34)cc2)CC1 [Example 1, N-[4-[[(1-Butyl-4-piperidinyl)amino]methyl]phenyl]-7-chloro-4-quinolinamine] | 8.4 | 13.1 | % Inhibition at 200 mg/kg p.o. [1, 4]: 7.1% |
| CCCCN1CCC(N(Cc2ccc(Nc3ccnc4cc(Cl)ccc34)cc2)C(C)=O)CC1 [Example 2, N-(1-Butyl-4-piperidinyl)-N-[[4-[(7-chloro-4-quinolinyl)amino]phenyl]methyl]acetamide] | 6 | 51.0 | % Inhibition at 200 mg/kg p.o. [1, 4]: 26.0% |
| CCCCN1CCC(N(Cc2ccc(Nc3ccnc4ccccc34)cc2)C(C)=O)CC1 [Example 3, N-(1-Butyl-4-piperidinyl)-N-[[4-(4-quinolinylamino)phenyl]methyl]acetamide] | 10.8 |  |  |
| CCCCN1CCC(N(Cc2ccc(Nc3ccnc4cc(Cl)ccc34)cc2)C(=O)c2ccccc2)CC1 [Example 4, N-(1-Butyl-4-piperidinyl)-N-[[4-[7-chloro-4-quinolinyl)amino]phenyl]methyl]benzamide, hydrochloride] | 2 | 40.0 |  |
| CCCCN1CCC(N(Cc2ccc(Nc3ccnc4cc(Cl)ccc34)cc2)C(=O)CCc2ccccc2)CC1.Cl [Example 5, N-(1-Butyl-4-piperidinyl)-N-[[4-[(7-chloro-4-quinolinyl)amino]phenyl]methyl]benzenepropanamide, hydrochloride] | 1.6 | 85.0 | % Inhibition at 200 mg/kg p.o. [1, 4]: 27.0% |
| CCCCN1CCC(N(Cc2ccc(Nc3ccnc4cc(Cl)ccc34)cc2)C(=O)C(F)(F)C(F)(F)C(F)(F)F)CC1.Cl [Example 6, N-(1-Butyl-4-piperidinyl)-N-[[4-[(7-chloro-4-quinolinyl)amino]phenyl]-methyl]-2,2,3,3,4,4,4-heptafluorobutanamide, hydrochloride] |  |  | IC50 (BK2 receptor): 4.3 µM; % Inhibition at 30 mg/kg i.p. ([1]; mouse, in vivo): 68.0% |
| CCCCN1CCC(N(Cc2ccc(Nc3ccnc4cc(Cl)ccc34)cc2)C(=O)C(F)(F)F)CC1.Cl [Example 7, N-(1-butyl-4-piperidinyl)-N-[[4-[(7-chloro-4-quinolinyl)amino]-phenyl]methyl]-2,2,2-trifluoroacetamide, hydrochloride] | 2.4 | 44.0 |  |
| CCCCN1CCC(N(Cc2ccc(Nc3ccnc4cc(Cl)ccc34)cc2)C(=O)CCC)CC1.Cl [Example 8, N-(1-Butyl-4-piperidinyl)-N-[[4-[(7-chloro-4-quinolinyl)-amino]phenyl]methyl]butanamide, hydrochloride] | 1.2 | 80.0 | % Inhibition at 200 mg/kg p.o. [1, 4]: 58.0% |
| CCN(CC)C(=O)c1ccc(CN2CCC(NCc3ccc(Nc4ccnc5cc(Cl)ccc45)cc3)CC2)cc1.Cl [Example 9, 4-[[4-[[[4-[(7-Chloro-4-quinolinyl)amino]phenyl]methyl]amino]-1-piperidinyl]methyl]-N,N-diethylbenzamide, hydrochloride] | 0.77 | 0.0 |  |
| Clc1ccc2c(Nc3ccc(CNC4CCN(Cc5ccccc5)CC4)cc3)ccnc2c1 [Example 10, 7-Chloro-N-[4-[[[1-(phenylmethyl)-4-piperidinyl]amino]methyl]phenyl]-4-quinolinamine] | 4 | 2.5 |  |
| CCCC(=O)N(Cc1ccc(Nc2ccnc3cc(Cl)ccc23)cc1)C1CCN(Cc2ccc(C(=O)N(CC)CC)cc2)CC1 [Example 12, 4-[[4-[[[4-[(7-Chloro-4-quinolinyl)amino]phenyl]methyl]-(1-oxobutyl)amino]-1-piperidinyl]methyl]-N,N-diethylbenzamide, hydrochloride, 0.76 hydrate] | 2.7 | 5 |  |
| CCN(CC)C(=O)CCCCCN1CCC(NCc2ccc(Nc3ccnc4cc(Cl)ccc34)cc2)CC1 [Example 13, 4-[[[4-[(7-Chloro-4-quinolinyl)amino]phenyl]methyl]amino]-N,N-diethyl-1-piperidinehexanamide, tris(trifluoroacetate), 0.42 hydrate] | 3.9 | 43 |  |
| CCCC(=O)N(Cc1ccc(Nc2ccnc3cc(Cl)ccc23)cc1)C1CCN(CCCCCC(=O)N(CC)CC)CC1 [Example 14, 4-[[[4-[(7-Chloro-4-quinolinyl)amino]phenyl]methyl](1-oxobutyl)amino]-N,N-diethyl-1-piperidinehexanamide, 0.56 hydrate] | 5.5 | 81 | % Inhibition at 200 mg/kg p.o. [1, 4]: 46% |
| O=C(c1ccccc1)N1CCC(NCc2ccc(Nc3ccnc4cc(Cl)ccc34)cc2)CC1 [Example 15, 1-Benzoyl-N-[[[4-[(7-chloro-4-quinolinyl)amino]phenyl]methyl]-4-piperidinanaminetrifluoroacetate (1:2), 1.03 hydrate] | 13.8 | 43 |  |
| CCCCCCCCCCCC(=O)N(Cc1ccc(Nc2ccnc3cc(Cl)ccc23)cc1)C1CCN(CCCCCC(=O)N(CC)CC)CC1.Cl [Example 16, 4-[[[4-[(7-Chloro-4-quinolinyl)amino]phenyl]methyl](1-oxododecyl)-amino]-N,N-diethyl-1-piperidinehexanamide, hydrochloride] | 3.8 | 30 |  |
| CC(C)Cc1ccc(C(C)C(=O)O)cc1 (centres unmarked) [Ibuprofen, reference compound] |  |  | % inhibition of writhing ([1]; at 200 mg/kg p.o. (reference compound ibuprofen)): 43% |
| CC(C(=O)O)c1cccc(C(=O)c2ccccc2)c1 (centres unmarked) [Ketoprofen, reference compound] |  |  | % inhibition of writhing ([1]; mouse, in vivo, po, 100 mg/kg): 52% |
| CN1CC[C@]23c4c5ccc(O)c4O[C@H]2[C@@H](O)C=C[C@H]3[C@H]1C5 [Morphine, reference compound] |  |  | ED50 ([1]; Mus musculus, po): 4.5 mg/kg |
| Des Arg^9 --BK: BK1 Agonist (RPPGFSPF; Bradykinin; UniProt P01042 381-388, looked up, fragment) [reference compound] |  |  | Activity (reference compounds, 3H-BK binding) (BK2 receptor; [5]): No Activity |
| DesArg^9 --Leu^8 BK: BK1 Antagonist [reference compound] |  |  | Activity (reference compounds, 3H-BK binding) (BK2 receptor; [5]): No Activity |
| Thi^5,8 --DPhe^7 --BK [reference compound] |  |  | IC50 (BK2 receptor; guinea pig ileum homogenate, 80 pM 3H-BK, 90 min, 25° C., pH 6.8, read-out: IC50 (reference compounds)): 0.069 µM |
